The values below come from ChEMBL document CHEMBL1201862, “PubChem BioAssay data set” (2004).

Molecules are shown by their SMILES.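 In this assay, cells in 96-well plates receive the compound at five concentrations for 48 hours. Endpoints are linearly interpolated between the surrounding concentrations. Abbreviation: GI50, concentration required for 50% inhibition of growth.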 The source made the active and inactive calls. No stated cut-off is given here; in the data, active = GI50 up to about 1.1 µM and inactive = higher. Non-standard residues stand in square brackets, D forms with d. Residues, ends and D or L forms follow the SMILES beside them. *: point of attachment. Cbz = O=C(OCc1ccccc1)*; Boc = CC(C)(C)OC(=O)*; Aib = CC(C)(N)C(=O)O; OBn = c1ccc(CO*)cc1; OtBu = CC(C)(C)O*; βAla = NCCC(=O)O

Some test systems named below: BT-549; CCRF-CEM; DU-145; HL-60; HOP-92; HT-29; Hs-578T; KM12; MCF7; MDA-MB-231; Malme-3M; OVCAR-8; SF-539; SK-MEL-28; SK-MEL-2; SK-MEL-5; M14; SNB-19; UACC-62.
Test in all cases: NCI-60 cell line screen, 48 h

As to `CS(=O)(=O)OCC1CN(S(C)(=O)=O)c2cc(O)ccc21` (configuration not stated), the GI50 with BT-549 is 2.19 µM (inactive); in the assay with CCRF-CEM it was 1.01 µM (active); in the assay with DU-145, 2.8 µM (inactive); in the assay with HL-60 it was 1.87 µM (inactive); with HOP-92, 3.09 µM (inactive); with HT-29, 2.81 µM (inactive). Moreover, the GI50 is 3.52 µM (inactive) in the assay on Hs-578T; 2.96 µM (inactive) with KM12; 1.53 µM (inactive) in the assay with MCF7; 2.3 µM (inactive) with MDA-MB-231; 2.02 µM (inactive) in the assay with Malme-3M; 2.67 µM (inactive) in the assay with OVCAR-8. Moreover, the GI50 was 2.42 µM (inactive) in the assay on SF-539, 3.47 µM (inactive) with SK-MEL-28, 2.59 µM (inactive) in the assay on SK-MEL-2 and 1.69 µM (inactive) with SK-MEL-5.

In the case of `O=C(CC(C(=O)c1cccs1)c1ccc2c(c1)OCO2)c1ccccc1` (configuration not stated), the GI50 in the assay with BT-549 is > 100 µM (inactive); in the assay on DU-145, > 100 µM (inactive); in the assay with HL-60 it was 58.9 µM (inactive); in the assay on HOP-92 it was > 100 µM (inactive); in the assay on HT-29 it was > 100 µM (inactive); in the assay with Hs-578T, > 100 µM (inactive). Moreover, the GI50 was > 100 µM (inactive) in the assay on KM12; 73.8 µM (inactive) in the assay on M14; > 100 µM (inactive) in the assay with MCF7; > 100 µM (inactive) in the assay on MDA-MB-231; > 100 µM (inactive) with Malme-3M; > 100 µM (inactive) in the assay on OVCAR-8. In addition, the GI50 in the assay on SF-539, in the assay on SK-MEL-28, with SK-MEL-2, with SK-MEL-5, in the assay on SNB-19 and in the assay on UACC-62 was > 100 µM (inactive) throughout.

For the compound `COC(=O)[C@]12CC[C@H]3CC[C@H]([C@H]31)[C@H](c1ccccc1)N2`, the GI50 with BT-549 was 18.4 µM (inactive); in the assay with CCRF-CEM, 21.4 µM (inactive); in the assay on DU-145, 18.5 µM (inactive); with HL-60, 19.1 µM (inactive); in the assay with HOP-92 it was 15.8 µM (inactive); in the assay on HT-29, 15.1 µM (inactive). Further, the GI50 in the assay with Hs-578T was 23 µM (inactive); with KM12, 18.5 µM (inactive); in the assay with M14 it was 17.9 µM (inactive); in the assay with MCF7, 16 µM (inactive); in the assay on MDA-MB-231 it was 16.3 µM (inactive); with OVCAR-8, 17.4 µM (inactive). For the same compound, the GI50 in the assay on SF-539 is 16.5 µM (inactive); in the assay with SK-MEL-28, 21.9 µM (inactive); in the assay on SK-MEL-2, 15.2 µM (inactive); in the assay on SK-MEL-5 it was 14.7 µM (inactive); with SNB-19, 23 µM (inactive); with UACC-62, 14.4 µM (inactive).

Consider `CC1=C(C)C2(C#N)C(=O)N3C(=NC(c4ccco4)NC3c3ccco3)C2(C#N)C(c2ccco2)N1` (configuration not stated), for which the GI50 with BT-549, in the assay with CCRF-CEM, with DU-145, in the assay on HL-60, in the assay on HOP-92 and with HT-29 was > 100 µM (inactive) throughout. The GI50 with Hs-578T, in the assay with KM12, in the assay on M14, in the assay on MCF7, in the assay with MDA-MB-231 and in the assay on Malme-3M was > 100 µM (inactive) throughout. The GI50 in the assay with OVCAR-8, with SK-MEL-28, with SK-MEL-2, with SK-MEL-5, in the assay on SNB-19 and in the assay with UACC-62 was > 100 µM (inactive) in each case.

Regarding `COc1ccc2c(c1)CCCN1Cc3ccccc3CC21` (configuration not stated), the GI50 in the assay with BT-549 is > 100 µM (inactive); in the assay with CCRF-CEM, 77.1 µM (inactive); in the assay with DU-145, > 100 µM (inactive); in the assay with HL-60, 28.8 µM (inactive); in the assay on HOP-92, 30.7 µM (inactive); with HT-29, 32.7 µM (inactive). The GI50 in the assay with Hs-578T is > 100 µM (inactive); with KM12, 65 µM (inactive); in the assay on M14 it was 39.5 µM (inactive); in the assay with MCF7 it was > 100 µM (inactive); in the assay with MDA-MB-231 it was 91.4 µM (inactive); with Malme-3M, 41.9 µM (inactive). Moreover, the GI50 with OVCAR-8 is > 100 µM (inactive); with SF-539 it was 92.7 µM (inactive); in the assay with SK-MEL-28, 62.1 µM (inactive); in the assay with SK-MEL-5, 22.5 µM (inactive); with SNB-19, 67.1 µM (inactive); in the assay on UACC-62, 91.6 µM (inactive).

As for `Cc1ccc2nc3ccccc3c(C3C4C(=O)N(c5ccc(F)cc5)C(=O)C4ON3C(C(N)=O)c3ccccc3)c2c1` (configuration not stated), the GI50 is > 100 µM (inactive) in the assay with BT-549; 38.5 µM (inactive) in the assay with CCRF-CEM; 59.3 µM (inactive) in the assay with DU-145; 34.9 µM (inactive) in the assay with HL-60; 37.1 µM (inactive) with HOP-92; 26.1 µM (inactive) in the assay with HT-29. Further, the GI50 with Hs-578T was 31.3 µM (inactive); in the assay on KM12, 32.4 µM (inactive); with M14 it was 57 µM (inactive); in the assay with MCF7, 23.4 µM (inactive); in the assay on MDA-MB-231, 39.8 µM (inactive); in the assay on Malme-3M it was 27.4 µM (inactive). The GI50 is 46 µM (inactive) with OVCAR-8; 27.6 µM (inactive) with SF-539; 59 µM (inactive) in the assay with SK-MEL-28; 33.3 µM (inactive) in the assay on SK-MEL-2; 57.8 µM (inactive) in the assay on SNB-19; 20.6 µM (inactive) with UACC-62.

As to `Nc1ncc(/C=N/O)c(NCC2(CO)CC(CCc3ccccc3)C2)n1` (configuration not stated), the GI50 with BT-549 was > 10 µM (inactive); in the assay with CCRF-CEM it was 14.7 µM (inactive); in the assay with DU-145 it was 5.41 µM (inactive); with HL-60, 2.2 µM (inactive); in the assay on HOP-92, 12.4 µM (inactive); with HT-29, 2.67 µM (inactive). The GI50 is 22.4 µM (inactive) in the assay with Hs-578T; 14.3 µM (inactive) in the assay on KM12; 4.58 µM (inactive) in the assay on MCF7; 9.71 µM (inactive) with MDA-MB-231; 12.1 µM (inactive) with Malme-3M; 11.1 µM (inactive) in the assay on OVCAR-8. For the same compound, the GI50 was 13.8 µM (inactive) in the assay on SF-539, 16.1 µM (inactive) with SK-MEL-2, 0.0577 µM (active) in the assay with SK-MEL-5 and 12.3 µM (inactive) in the assay with UACC-62.

Take `CC1=NC(=O)C(C)(c2ccccc2)N1CCc1ccccc1` (configuration not stated): the GI50 in the assay on BT-549 is > 100 µM (inactive); in the assay on CCRF-CEM, 36.2 µM (inactive); in the assay with DU-145, > 100 µM (inactive); in the assay with HL-60, 51.5 µM (inactive); in the assay with HOP-92, 16.9 µM (inactive); in the assay on HT-29, 26.5 µM (inactive). Moreover, the GI50 in the assay on Hs-578T was > 100 µM (inactive); in the assay with KM12, 44.3 µM (inactive); in the assay on M14 it was > 100 µM (inactive); in the assay with MCF7, 55.1 µM (inactive); in the assay with MDA-MB-231 it was 67.6 µM (inactive); in the assay on Malme-3M, > 100 µM (inactive). In addition, the GI50 with OVCAR-8 was > 100 µM (inactive); in the assay on SF-539 it was 85.3 µM (inactive); in the assay with SK-MEL-2 it was > 100 µM (inactive); with SK-MEL-5, 27 µM (inactive); in the assay with SNB-19, > 100 µM (inactive); in the assay with UACC-62 it was 44 µM (inactive).

On to `CCCCCCCCCCCC[C@@H](O)[C@H]1CC[C@H]([C@H](O)CC[C@H](O)[C@@H]2CC[C@@H](CCCCCCCC3=C[C@H](C)OC3=O)O2)O1`, for which the GI50 with BT-549 is > 50 µM (inactive); in the assay on CCRF-CEM, > 38.4 µM (inactive); in the assay on DU-145, 7.55 µM (inactive); with HL-60, 1.74 µM (inactive); in the assay with HOP-92, > 50 µM (inactive); in the assay on HT-29, > 50 µM (inactive). In addition, the GI50 with Hs-578T was 3.94 µM (inactive); in the assay on KM12 it was > 50 µM (inactive); in the assay with M14, > 50 µM (inactive); in the assay on MCF7, > 50 µM (inactive); in the assay with MDA-MB-231 it was > 50 µM (inactive); in the assay on Malme-3M it was > 50 µM (inactive). Moreover, the GI50 was > 50 µM (inactive) in the assay on OVCAR-8; > 50 µM (inactive) in the assay with SF-539; > 50 µM (inactive) with SK-MEL-28; > 50 µM (inactive) in the assay on SK-MEL-2; > 50 µM (inactive) in the assay on SNB-19; 1.53 µM (inactive) in the assay on UACC-62.

For the compound `COc1cc(-c2oc3c(OC)cc(OC)c(O)c3c(=O)c2OC)cc(OC)c1OC`, the GI50 in the assay with BT-549 was 5.32 µM (inactive); in the assay with DU-145, 32.7 µM (inactive); in the assay on HL-60, > 100 µM (inactive); in the assay with HOP-92 it was 15.6 µM (inactive); with HT-29, > 100 µM (inactive); with Hs-578T it was 2.93 µM (inactive). The GI50 with KM12 is > 100 µM (inactive); in the assay on M14, > 100 µM (inactive); in the assay on MCF7, 97.1 µM (inactive); with MDA-MB-231, 2.84 µM (inactive); with Malme-3M it was 5.97 µM (inactive); in the assay on OVCAR-8 it was 5.21 µM (inactive). For the same compound, the GI50 with SF-539 is 8.57 µM (inactive); with SK-MEL-28, > 100 µM (inactive); with SK-MEL-5 it was 20.7 µM (inactive); in the assay with SNB-19 it was 3.82 µM (inactive); in the assay on UACC-62 it was 23.6 µM (inactive).

For the compound `CC(C)(C)OC(=O)CC(NC(=O)OC(C)(C)C)C(=O)NC(CCCCNC(=O)OCc1ccccc1)C(=O)NC(C)(C)C(=O)NCCC(=O)OCc1ccccc1` (configuration not stated) (Boc-D(OtBu)K(Cbz)[Aib][βAla]-OBn; configuration not given here), the GI50 in the assay on BT-549, with DU-145, in the assay on HL-60, in the assay on HOP-92, with HT-29 and with Hs-578T was > 100 µM (inactive) throughout. In addition, the GI50 in the assay on KM12, with M14, with MCF7, with MDA-MB-231, in the assay on Malme-3M and in the assay with OVCAR-8 was > 100 µM (inactive) throughout. The GI50 with SF-539, in the assay on SK-MEL-28, with SK-MEL-5, in the assay with SNB-19 and in the assay on UACC-62 was > 100 µM (inactive) each time.
